Data on twelve compounds can be found in patent EP2385948B1, “FUSED THIAZOLO AND OXAZOLO PYRIMIDINONES” (Torrent Pharmaceuticals Limited, priority 2009, dated 2011).

The test relates to erythropoietin. In words: In vitro erythropoietin induction (ELISA of cell culture supernatant). The note with it: Homo sapiens, Hep3B, 16 h, read-out: EPO fold induction, Hep3B cell line, 200 uM, 16 hours, relative to vehicle control. (In general: In an ELISA, binding on a coated surface is turned into a signal by an enzyme label.)

Protocol: Hep3B cell line (ATCC HB8064) was employed. Induction of erythropoietin was carried out for the indicated dose of compounds for 16 hours duration. At the end of 16 hours, cell culture medium was collected and centrifuged to remove any debris. Supernatant obtained was analyzed for erythropoietin by ELISA (R&D systems, USA). The results were expressed as fold induction as compared to vehicle control.

With `COc1ccc(CN2CCc3c(sc4nc(O)c(C(=O)NCC(=O)O)c(=O)n34)C2)cc1` [Compound 31, {[2-Hydroxy-7-(4-methoxy-benzyl)-4-oxo-5,6,7,8-tetrahydro-4H-9-thia-1,4a,7-triaza-fluorene-3-carbonyl]-amino}-acetic acid], the fold induction at 200 µM is 5 to 8.

With `CC(C)S(=O)(=O)N1CCc2c(sc3nc(O)c(C(=O)NCC(=O)O)c(=O)n23)C1` [Compound 5, {[2-Hydroxy-4-oxo-7-(propane-2-sulfonyl)-5,6,7,8-tetrahydro-4H-9-thia-1,4a,7-triaza-fluorene-3-carbonyl]-amino}-acetic acid], the fold induction at 200 µM lay in the range of 2 to 4. `O=C(O)CNC(=O)c1c(O)nc2sc3c(n2c1=O)CCS(=O)(=O)C3` [Compound 67, [(2-Hydroxy-4,7,7-trioxo-5,6,7,8-tetrahydro-4H-71ambda*6*,9-dithia-1,4a-diaza-fluorene-3-carbonyl)-amino]-acetic acid]: the fold induction at 200 µM was in the range of 2 to 4.

As to `O=C(O)CNC(=O)c1c(O)nc2sc3c(n2c1=O)CCN(S(=O)(=O)c1ccc(Cl)s1)C3` [Compound 17, {[7-(5-Chloro-thiophene-2-sulfonyl)-2-hydroxy-4-oxo-5,6,7,8-tetrahydro-4H-9-thia-1,4a,7-triaza-fluorene-3-carbonyl]-amino}-acetic acid], the fold induction at 200 µM was in the range of 2 to 4. On to `Cc1ccc(S(=O)(=O)N2CCc3c(sc4nc(O)c(C(=O)NCC(=O)O)c(=O)n34)C2)cc1` [Compound 7, {[2-Hydroxy-4-oxo-7-(toluene-4-sulfonyl)-5,6,7,8-tetrahydro-4H-9-thia-1,4a,7-triaza-fluorene-3-carbonyl]-amino}-acetic acid], for which the fold induction at 200 µM lay in the range of 2 to 4. Under `O=C(O)CNC(=O)c1c(O)nc2sc3c(n2c1=O)CCN(C(=O)Cc1ccc(Cl)cc1)C3` [Compound 28, ({7-[2-(4-Chloro-phenyl)-acetyl]-2-hydroxy-4-oxo-5,6,7,8-tetrahydro-4H-9-thia-1,4a,7-triaza-fluorene-3-carbonyl}-amino)-acetic acid] stands 9 to 16; under `CS(=O)(=O)c1ccc(C(=O)N2CCc3c(sc4nc(O)c(C(=O)NCC(=O)O)c(=O)n34)C2)cc1` [Compound 42, {[2-Hydroxy-7-(4-methanesulfonyl-benzoyl)-4-oxo-5,6,7,8-tetrahydro-4H-9-thia-1,4a,7-triaza-fluorene-3-carbonyl]-amino}-acetic acid], 5 to 8; under `O=C(O)CNC(=O)c1c(O)nc2sc3c(n2c1=O)CCN(c1ccc(C(F)(F)F)cn1)C3` [Compound 18, {[2-Hydroxy-4-oxo-7-(5-trifluoromethyl-pyridin-2-yl)-5,6,7,8-tetrahydro-4H-9-thia-1,4a,7-triaza-fluorene-3-carbonyl]-amino}-acetic acid], 9 to 16. Take `O=C(O)CNC(=O)c1c(O)nc2sc3c(n2c1=O)CCN(C(=O)CC1CCCC1)C3` [Compound 29, {[7-(2-Cyclopentyl-acetyl)-2-hydroxy-4-oxo-5,6,7,8-tetrahydro-4H-9-thia-1,4a,7-triaza-fluorene-3-carbonyl]-amino}-acetic acid]: the fold induction at 200 µM was in the range of 9 to 16. As to `CC(C)(C)C1CCc2c(sc3nc(O)c(C(=O)NCC(=O)O)c(=O)n23)C1` (stereo not drawn) [Compound 13, [(7-tert-Butyl-2-hydroxy-4-oxo-5,6,7,8-tetrahydro-4H-9-thia-1,4a-diaza-fluorene-3-carbonyl)-amino]-acetic acid], the fold induction at 200 µM is below 2. Under `CC(C)NC(=S)N1CCc2c(sc3nc(O)c(C(=O)NCC(=O)O)c(=O)n23)C1` [Compound 25, [(2-Hydroxy-7-isopropylthiocarbamoyl-4-oxo-5,6,7,8-tetrahydro-4H-9-thia-1,4a,7-triaza-fluorene-3-carbonyl)-amino]-acetic acid] stands 2 to 4; under `O=C(NC1(C(=O)O)CCCC1)c1c(O)nc2sc3c(n2c1=O)CCCC3` [Compound 6, 1-[(2-Hydroxy-4-oxo-5,6,7,8-tetrahydro-4H-9-thia-1,4a-diaza-fluorene-3-carbonyl)-amino]-cyclopentanecarboxylic acid], below 2.
